According to paper PMC5552854, “ER/K linked GPCR-G protein fusions systematically modulate second messenger response in cells” (Scientific Reports, 2017):

Columns and labels:
β2-AR-Gs sensor = experiment: [3H]-DHA saturation binding (KD); design: species or system human; details: β2-AR-Gs sensor membranes
Method: (§1) Radio-ligand assays followed the previously published protocol. […]; PerkinElmer) for 90 min at room temperature in Tris-Buffered-Saline (TBS) pH 7.4. Samples were transferred to GF/C membranes pre-treated with 0.3% PEI solution in TBS, washed extensively with cold TBS, and dried over night at room temperature. […] Each experiment was done at least twice with different membrane preparations, with three separate samples prepared per condition, per experiment.

β2-AR control (–) sensor = experiment: [3H]-DHA saturation binding (KD); design: species or system human; details: control sensor membranes
Method: as §1

α2-AR-Gi fusion [1] = details: 100 μM / 1 mM (Fig. 3 legend), live cells
Method: Change in FRET (ΔFRET) was calculated as FRETligand – FRETbuffer.

α2-AR-Gi fusion [2] = details: 100 μM, 1 μM forskolin; α2-AR-Gi compared to α2-AR alone (–)

Kd (β2-AR-Gs sensor) [pM]	Kd (β2-AR control (–) sensor) [pM]	Compound	ΔFRET (α2-AR-Gi fusion [1])	loss in cAMP signaling (inhibition of forskolin induced cAMP) (α2-AR-Gi fusion [2])
~200	~200	CCCc1ccccc1OCC(O)CNC(C)C (stereo not shown) [[^3H]-DHA, [^3H]-dihydroalprenolol]		
		CNC[C@H](O)c1ccc(O)c(O)c1 [epinephrine]	0.01 ± 0.002	greater loss in cAMP signaling
